Reference: patent publication US7759337B2, “Phthalazine compounds and methods of use” (Amgen Inc., priority 2005, dated 2010)
pIC50: −log10 of the molar value.

The molecules below were run on production of TNF by monocytes activated with bacterial lipopolysaccharide (LPS) (assay: Lipopolysaccharide-activated monocyte TNF production assay). Details: Homo sapiens; whole blood monocyte assay (LPS induced TNF release).
Assay type: cell-based
Experimental: Test compounds were evaluated in vitro for the ability to inhibit the production of TNF by monocytes activated with bacterial lipopolysaccharide (LPS). Fresh residual source leukocytes (a byproduct of plateletpheresis) were obtained from a local blood bank, and peripheral blood mononuclear cells (PBMCs) were isolated by density gradient centrifugation on Ficol-Paque Plus (Pharmacia). PBMCs were suspended at 2×10^6/mL in DMEM supplemented to contain 2% FCS, 10 mM, 0.3 mg/mL […], 100 U/mL penicillin G and […] streptomycin sulfate (complete media). Cells were plated into Falcon flat bottom, 96 well culture plates (200 μL/well) and cultured overnight at 37° C. and 6% CO2. Non-adherent cells were removed by washing with 200 μl/well of fresh medium.
Test compounds were dissolved in […]. Compound stock solutions were prepared to an initial concentration of […]. Stocks were diluted initially to 20-200 μM in complete media. Nine two-fold serial dilutions of each compound were then prepared in complete medium.
One hundred microliters of each test compound dilution were added to microtiter wells containing adherent monocytes and 100 μL complete medium. Monocytes were cultured with test compounds for 60 min at which time 25 μL of complete medium containing 30 ng/mL lipopolysaccharide from E. coli K532 were added to each well. Cells were cultured an additional 4 hrs. Culture supernatants were then removed and TNF presence in the supernatants was quantified using an ELISA.
Flat bottom, 96 well Corning High Binding ELISA plates were coated overnight (4° C.) with 150 μL/well of 3 μg/mL murine anti-human TNF-α MAb (R&D Systems #MAB210). Wells were then blocked for 1 h at room temperature with 200 μL/well of CaCl2-free ELISA buffer supplemented to contain 20 mg/mL BSA (standard ELISA buffer: […], 150 mM NaCl, 2 mM CaCl2, 0.15 mM thimerosal, pH 7.4). Plates were washed and replenished with 100 μL of test supernatants (diluted 1:3) or standards. Standards consisted of eleven 1.5-fold serial dilutions from a stock of I ng/mL recombinant human TNF (R&D Systems). Plates were incubated at room temperature for 1 h on orbital shaker (300 rpm), washed and replenished with 100 μL/well of 0.5 μg/mL goat anti-human TNF-α (R&D systems #AB-210-NA) biotinylated at a 4:1 ratio. Plates were incubated for 40 min, washed and replenished with 100 μL/well of alkaline phosphatase-conjugated streptavidin (Jackson ImmunoResearch #016-050-084) at 0.02 μg/mL. Plates were incubated 30 min, washed and replenished with 200 μL/well of 1 mg/mL of p-nitrophenyl phosphate. After 30 min, plates were read at 405 nm on a Vmax plate reader.
Standard curve data were fit to a second order polynomial and unknown TNF-α concentrations determined from their OD by solving this equation for concentration. TNF concentrations were then plotted vs. test compound concentration using a second order polynomial. This equation was then used to calculate the concentration of test compounds causing a 50% reduction in TNF production.

Structure (SMILES) | pIC50
Cc1ccc(-c2nnn[nH]2)cc1-c1ccc2c(N3CCOCC3)nncc2c1 [Example 77, 6-[2-Methyl-5-(1H-tetraazol-5-yl)phenyl]-1-morpholin-4-ylphthalazine] | ≥ 5.30
Cc1ccc(C(=O)NC2CC2)cc1-c1ccc2c(C#N)nncc2c1 [Example 79, 3-(1-cyanophthalazin-6-yl)-N-cyclopropyl-4-methylbenzamide] | ≥ 5.30
Cc1sc(C(=O)NC2CC2)cc1-c1ccc2c(N3CCOCC3)nncc2c1 [Example 80, N-Cyclopropyl-5-methyl-4-(1-morpholin-4-ylphthalazin-6-yl)thiophene-2-carboxamide] | ≥ 5.30
Cc1ccc(C(N)=O)cc1-c1ccc2c(N3CCOC[C@H]3C)nncc2c1 [Example 82, 4-Methyl-3-{1-[(3R)-3-methylmorpholin4-yl]phthalazin-6-yl}benzamide] | ≥ 5.30
Cc1ccc(C(=O)NC2CC2)cc1-c1ccc2c(C(N)=O)nncc2c1 [Example 83, 6-{5-[(Cyclopropylamino)carbonyl]-2-methylphenyl}phthalazine-1-carboxamide] | ≥ 5.30
CC(=O)c1nnc(C)c2cc(-c3cc(C(=O)NC4CC4)ccc3C)ccc12 [Example 84, 3-(1-Acetyl-4-methylphthalazin-6-yl)-N-cyclopropyl-4-methylbenzamide] | ≥ 5.30
Cc1ccc(C(=O)NC2CC2)cc1-c1ccc2c(C(=O)N3CCOCC3)nncc2c1 [Example 85, N-Cyclopropyl-4-methyl-3-[1-(morpholin-4-ylcarbonyl)phthalazin-6-yl]benzamide] | ≥ 5.30
Cc1ccc(C(N)=O)cc1-c1ccc2c(N3CCCC3=O)nncc2c1 [Example 94, 4-methyl-3-(1-(2-oxopyrrolidine-1-yl)phthalazin-6-yl)benzamide] | ≥ 5.30
Cc1ccc(C(N)=O)cc1-c1ccc2c(-c3ccc(S(C)(=O)=O)cc3C)nncc2c1 [Example 96, 4-methyl-3-(1-(2-methyl-4-(methylsulfonyl)phenyl)phthalazin-6-yl)benzamide] | ≥ 5.30
Cc1ccc(C(=O)NC2CC2)cc1-c1ccc2c(N3CCCC[C@@H]3C)nncc2c1 [Example 97, N-cyclopropyl-4-methyl-3-{1-[(2S)-2-methylpiperidin-1-yl]phthalazin-6-yl}benzamide] | ≥ 5.30
Cc1ccc(C(=O)NC2CC2)cc1-c1ccc2c(-c3ccccc3C(N)=O)nncc2c1 [Example 98, 3-(1-(2-(aminocarbonyl)phenyl)-6-phthalazinyl)-N-cyclopropyl-4-methylbenzamide] | ≥ 5.30
Cc1ccc(C(=O)NC2CC2)cc1-c1ccc2c(N3CCN4C(=O)OC[C@H]4C3)nncc2c1 [Example 99, 3-{1-[(8aR)-3-oxotetrahydro[1,3]oxazolo[3,4-a]pyrazin-7(1H)-yl]phthalazin-6-yl}-N-cyclopropyl-4-methylbenzamide] | ≥ 5.30
Cc1ccc(C(=O)NC2CC2)cc1-c1ccc2c(N3CCNC(=O)[C@H]3C)nncc2c1 [Example 100, N-cyclopropyl-4-methyl-3-{1-[(2R)-2-methyl-3-oxopiperazin-1-yl]phthalazin-6-yl}benzamide] | ≥ 5.30
Cc1ccc(C(=O)NC2CC2)cc1-c1ccc2c(N3CCN4C(=O)OC[C@@H]4C3)nncc2c1 [Example 101, 3-{1-[(8aS)-3-oxotetrahydro[1,3]oxazolo[3,4-a]pyrazin-7(1H)-yl]phthalazin-6-yl}-N-cyclopropyl-4-methylbenzamide] | ≥ 5.30
Cc1ccc(C(=O)NC2CC2)cc1-c1ccc2c(N3CCN4C(=O)CC[C@H]4C3)nncc2c1 [Example 102, 3-{1-[(8aS)-6-oxohexahydropyrrolo[1,2-a]pyrazin-2(1H)-yl]phthalazin-6-yl}-N-cyclopropyl-4-methylbenzamide] | ≥ 5.30
Cc1ccc(C(=O)NC2CC2)cc1-c1ccc2c(N3CCc4c(O)n[nH]c4C3)nncc2c1 [Example 103, N-cyclopropyl-3-(1-(3-hydroxy-4,5-dihydro-1H-pyrazolo[3,4-c]pyridin-6(7H)-yl)phthalazin-6-yl)-4-methylbenzamide] | ≥ 5.30
